Assays:
Assay type in all cases: in vivo, human
[1] = Multiple escalating dose study, plasma pharmacokinetics of oral suspension (Cohorts 1-3)
Method: Healthy subjects aged 18 to 55 years were treated with an oral suspension of Compound 1 to study the safety, tolerability, pharmacokinetics and pharmacodynamics of Compound 1 in healthy subjects.
The study was a randomized, double-blind, placebo-controlled multiple escalating dose study comprised of 3 cohorts that each received an oral suspension. Each cohort consisted of two groups: one group treated with Compound 1 and another treated with placebo. In each cohort, the ratio of Compound 1-treated subjects to placebo-treated subjects was 3:1.
The Compound 1-treated subjects of Cohort 1 were treated with 15.0 mg of Compound 1 once per day (QD). The Compound 1-treated subjects of Cohort 2 were treated with 30.0 mg of Compound 1 QD. The Compound 1-treated subjects of Cohort 3 were treated with 60.0 mg of Compound 1 QD.
Patients in each cohort were treated with Compound 1 for 14 consecutive days, unless dosing was halted by the Safety Review Committee (SRC). The dosing of subjects in each of the cohorts was staggered with the decision to dose escalate based on SRC review of a minimum of 14 days of observation of safety and tolerability data and review of the available plasma PK data from the preceding cohort(s). Thus, dose escalation was predicated on tolerability of the prior cohorts.
Compound 1 was administered under fasted conditions (no food or drink, except water, for at least 10 hours prior to dosing). Immediately after administration of Compound 1, the subject was be administered 240 mL water. No additional fluid intake was allowed until 1 hour after Compound 1 administration.
Cohort 1 subjects received a single 15.0 mg dose of a Compound 1 suspension on the morning of Days 1-14. Cohort 2 subjects received a single 30.0 mg dose of a Compound 1 suspension on the morning of Days 1-14. Cohort 3 subjects received a single 60.0 mg dose of a Compound 1 suspension on the morning of Days 1-14. For all cohorts, the last treatment was administered on the morning of Day 14.
Data were obtained from the blood plasma samples collected from each cohort according to the schedule provided.
Plasma samples were analyzed to determine Compound 1 concentrations using a validated assay method. Pharmacokinetic variables (including but not limited to Cmax, Tmax and AUC(0-last)) were calculated using non-compartmental analysis. PK parameters for Compound 1 were derived from the plasma concentration data using non-compartmental analysis with Phoenix™ WinNonlin® v 8.0 (Pharsight Corporation, USA).
Blood (Cohorts 1-3): For each cohort, blood samples were collected on Days 1, 2, 3, 4, 5, 6 and 14 at the following time points: Day 1 at pre-dose (0 hour), 0.25, 0.5, 0.75, 1, 1.5, 2, 2.5, 3, 4, 6, 8, 12, 16 h post-dose; Day 2 at pre-dose (24 hours), Day 3 at pre-dose (48 hours), Day 4 at pre-dose (72 hours), Day 5 at pre-dose (96 hours), Day 6 at pre-dose (120 hours); Day 14 at pre-dose 0.25, 0.5, 0.75, 1, 1.5, 2, 2.5, 3, 4, 6, 8, 12, 16, 24, 36, 48, and 72 hours. Trough level blood samples were collected on Days 2, 3, 4, 5, 6 and 14, prior to the morning dose administrations.
Descriptive statistics were calculated for plasma and urine PK parameter and concentration data and summarized by study day and time point. Arithmetic means, coefficient of variation (CV), standard deviation, median, minimum, and maximum values, and number of observations were calculated for all PK parameters and trough concentration data. Except for Tmax, the geometric mean, geometric standard deviation, and geometric CV were provided for all PK parameter and concentration data.

[2] = Safety and tolerability in the multiple escalating dose study in healthy subjects
Method: Adverse events (AEs) were monitored throughout the duration of the study.
To monitor for possible AEs, vital signs, hematology and clinical chemistry laboratory parameters, ECG readings, neurological examination findings, and EEG parameters and abnormal findings were recorded at each visit.

[3] = Example 3 Part C: tablet single ascending doses, morning fasted vs 8 p.m., plasma pharmacokinetics; conditions: for half-life: Mean (SD); for AUC(0-inf): AUCinf
Method: Patients with severe major depressive disorder (MDD) aged 18 to 65 years were treated with an oral suspension or tablet of Compound 1 to study the effect of food and time of administration on the pharmacokinetics, as well as the safety and tolerability of these formulations.
Part C is a randomized, participant- and Investigator-blinded, Sponsor-unblinded, placebo-controlled, parallel-group design to evaluate the pharmacokinetics and safety of single ascending doses of a Compound 1 citrate tablet. One cohort of 16 participants was planned, with 12 participants receiving Compound 1 and 4 participants receiving placebo. Part C also evaluated administration of a single dose level at 8 p.m., both 2 hours and 4 hours after dinner.
Preliminary pharmacokinetics data from Part A, where 45 mg and 60 mg of oral suspension were administered (Cohort 1), and Part C, where 40 mg (2×20 mg), 60 mg (3×20 mg) and 80 mg (4×20 mg) of the tablet formulation were administered, have been analyzed and are summarized below.
A tablet comprising Compound 1 was administered as single ascending doses of 40 mg, 60 mg and 80 mg under fasted conditions in the morning (FIG. 5). The 60 mg dosage was administered on two additional occasions at 8 p.m., once 4 hours after dinner and once 2 hours after dinner (FIG. 6).

[4] = test system: patients with severe major depressive disorder (MDD); test: Open-label study in severe MDD, Part A efficacy (HAM-D); conditions: for patients meeting the HAM-D Response or Remission criteria: Day 15
Method: The study is an open-label, study comprised of two dosing periods, Part A and Part B, during which patients were treated with an oral suspension of Compound 1. Part A was an open-label assessment of two dose levels of Compound 1 (45 mg qHS Cohort 1 and 80 mg qHS Cohort, i.e., once daily administration at bedtime) administered for 7 days inpatient followed by 7 days outpatient. Compound 1 was administered at 4 p.m. on Day 1 in order to collect post-dosing PK samples that could not be collected with qHS dosing.
In Part A, participants were administered daily doses of Compound 1 (45 mg Cohort and 80 mg Cohort) at 4 p.m. on Day 1 and qHS on all other study days for 7 days inpatient followed by 7 days outpatient (with subsequent Cohorts receiving up to 120 mg qHS). Participants checked into the clinic on Day 1. During this period the following assessments were performed: adverse event assessments, vital signs, physical examinations, blood and urine samples for safety assessments, ECGs, C-SSRS assessments, blood samples for PK, and efficacy assessments (HAM-D, MADRS, HAM-A, CGI [CGI-S and CGI-I], PSQI, and SDQ). Baseline assessments occurred on Day 1 prior to administration of study drug. On Day 8, prior to discharge, participants were supplied with sufficient Compound 1 to complete 7 days of dosing.
Patients were administered daily doses of Compound 1 for 7 days inpatient followed by 7 days outpatient.
In the 45 mg Cohort, patients were administered once daily dose of 45 mg of Compound 1 at bedtime for 7 days inpatient followed by once daily dose of 45 mg of Compound 1 at bedtime for 7 days outpatient.
In the 80 mg Cohort, patients were administered once daily dose of 80 mg of Compound 1 at bedtime for 7 days inpatient followed by once daily dose of 80 mg of Compound 1 at bedtime for 7 days outpatient.
Part A: In Part A, HAM-D, MADRS, HAM-A, CGI-S, and CGI-I values were collected in the morning of Days 1, 2, 3, 4, 5, 6, 7, 8, 15, 21 and 28. PSQI and SDQ values will be collected on Days 1, 8, 15, 21 and 28. Part B: In Part B, HAM-D, MADRS, HAM-A, CGI-S, CGI-I, PSQI and SDQ values will be collected on the days described for Part A.
HAM-D Response was defined as a reduction from baseline of ≥50% in total HAM-D score. HAM-D remission was defined as a total HAM-D score of ≤7.
Efficacy analysis: For both parts of the clinical trial, the HAM-D total score and change from baseline values will be summarized by treatment group and time point. In addition, the change from baseline in HAM-D total score will also be analyzed using paired t-tests or similar methods. The null hypothesis of this test is that the mean difference in HAM-D total score between paired observations (i.e., pre- and post-treatment) is zero. Similar analysis methods will be used for all secondary and exploratory efficacy variables.

[5] = Cohort 1 (15.0 mg QD), Day 14 steady state, Geo Mean
[6] = Cohort 1 (15.0 mg QD), Day 14 steady state, Mean
[7] = Cohort 1 (15.0 mg QD), Day 14 steady state, Median
[8] = Cohort 2 (30.0 mg QD), Day 14 steady state, Geo Mean
[9] = Cohort 2 (30.0 mg QD), Day 14 steady state, Mean
[10] = Cohort 3 (60.0 mg QD), Day 14 steady state, Geo Mean
[11] = Cohorts 1-3, 15-60 mg QD for 14 days

For `COC[C@@]1(O)CC[C@@]2(C)[C@@H](CC[C@@H]3[C@@H]2CC[C@]2(C)[C@@H](C(=O)Cn4ccnc4)CC[C@@H]32)C1` [Compound 1, 3α-Hydroxy-3β-methoxymethyl-21-(1′-imidazolyl)-5α-pregnan-20-one], the “accumulation factor of the dosing interval (ratio of AUCDay14/AUCDay1)” value ([1]; Cohort 1 (15 mg QD) and Cohort 2 (30 mg QD)) was “approximately 1.25”, the CLss/F [1, 5] was 30.497 L/h and the t1/2 [1, 5] was 14.613 h. It also gave a CLss/F [1, 6] of 31.415 L/h, a t1/2 [1, 6] of 14.772 h and an AUCinf [1, 7] of 595.2 ng·h/mL. For the same compound, the CLss/F [1, 7] was 30.41 L/h, the CLss/F [1, 8] was 30.178 L/h and the t1/2 [1, 8] was 12.647 h. For the same compound, the CLss/F [1, 9] was 30.949 L/h, the t1/2 [1, 9] was 12.701 h and the CLss/F ([1]; Cohort 2 (30.0 mg QD), Day 14 steady state, Median) was 30.12 L/h. The “accumulation factor of the dosing interval (ratio of AUCDay14/AUCDay1)” value ([1]; Cohort 3 (60 mg QD)) was 0.89, the CLss/F [1, 10] was 30.398 L/h and the t1/2 [1, 10] was 12.164 h. For the same compound, the CLss/F ([1]; Cohort 3 (60.0 mg QD), Day 14 steady state, Mean) was 32.142 L/h, the CLss/F ([1]; Cohort 3 (60.0 mg QD), Day 14 steady state, Median) was 28.45 L/h and the AUC0-tau ([1]; human, in vivo, 60 mg) was 2356.80 ng·h/mL. The steady state clearance ([1]; human, in vivo, 60 mg) was “approximately 31 L/hour”, the absorption ([1]; in vivo, po) was “rapid absorption” and the “Serious Adverse Events” value [2, 11] was “no Serious Adverse Events”. The “vital sign, ECG, or lab abnormalities” value [2, 11] was “no clinically relevant vital sign, ECG, or lab abnormalities”, the “maximum tolerated dose and serious adverse events” value ([2]; MAD study, after a dose of 60 mg, beta power increase up to 2.8-fold) was “without achieving a maximum tolerated dose (MTD) or demonstrating any serious adverse events (SAEs)” and the Tmax ([3]; human, in vivo, 40 mg) was 1.5 h. For the same compound, the half-life ([3]; human, in vivo, 40 mg, 9 a.m. administration (fasted), N = 13) was 11.9 h, the AUC(0-inf) ([3]; human, in vivo, 40 mg) was 1390 ng·h/mL and the Cmax ([3]; human, in vivo, 40 mg) was 181 ng/mL. The Tmax ([3]; human, in vivo, 60 mg) was 2.5 h, the tmax ([3]; human, in vivo, 60 mg) was 2.5 (1.0, 3.0) h and the half-life ([3]; human, in vivo, 60 mg, 8 p.m. administration (60 mg), 2 h after dinner, N = 12) was 9.6 h. For the same compound, the half-life ([3]; human, in vivo, 60 mg, 8 p.m. administration (60 mg), 4 h after dinner, N = 11) was 11.4 h, the half-life ([3]; human, in vivo, 60 mg, 9 a.m. administration (fasted), N = 12) was 11.5 h and the AUC(0-inf) ([3]; human, in vivo, 60 mg) was 2610 ng·h/mL. It also gave a Cmax ([3]; human, in vivo, 60 mg) of 408 ng/mL, a half-life ([3]; human, in vivo, 80 mg, 9 a.m. administration (fasted), N = 12) of 11.4 h and an AUC(0-inf) ([3]; human, in vivo, 80 mg) of 3980 ng·h/mL. For the same compound, the Cmax ([3]; human, in vivo, 80 mg) was 546 ng/mL, the “dose proportionality of exposure” value ([3]; tablet, fasted, between 60 mg and 80 mg) was “closer to dose-proportional” and the “increase in exposure over a 2-fold increase in dose” value ([3]; tablet, fasted, from 40 mg to 80 mg) was about 3 fold. For the same compound, the “patients meeting the HAM-D Response or Remission criterion” value ([4]; 45 mg Cohort (qHS), Day 7) was 11 of the 13, the “patients meeting the HAM-D Response or Remission criteria” value ([4]; 45 mg Cohort (qHS)) was 8 of the 13 and the “patients meeting the HAM-D Response or Remission criteria” value ([4]; 80 mg Cohort (qHS)) was 6 of the 7. The “Efficacy (reduction Mean Change from Baseline in HAM-D score)” value ([4]; as monotherapy (no background antidepressant) and in combination with another antidepressant) was “observed”, the “symptoms of MDD” value ([4]; daily dose of 45 mg or 80 mg) was “reduced symptoms of moderate to severe MDD” and the “Efficacy (reduction Mean Change from Baseline in HAM-D score)” value ([4]; patients in first course of antidepressant treatment and patients that failed previous courses) was “observed”.

Reference: patent publication US20240197756A1, “METHODS OF TREATMENT WITH NEUROACTIVE STEROIDS” (priority 2021, published 2024)
